Experimental data from US20230146455A1, “TREATMENT OF INFLAMMATORY DISEASES WITH PEPTIDES AND PHARMACEUTICAL COMPOSITIONS” (Yuyu Pharma, Inc., priority 2020, published 2023).
Several values for one entry are separate records, joined by “and”; a condition that tells them apart may be missing. Equal values may be shown once. Where a SMILES comes first, the peptide text is derived from it. [ ]: non-standard residue; d: D form. Hyp = O=C(O)[C@@H]1C[C@@H](O)CN1

Test system: TIMP-1
Test: Example 9 Luminex, LPS hPBMCs: TIMP-1
Assay type: cell-based, human
Method: Treatment Human PBMCs were pretreated with YY-101, YDE-011 and YDE-043 or reference compound; Xiidra® at various concentration (ranging from 1 nM to 100 uM) for 2 h before stimulation. An equal volume of 0.5% DMSO was used as a vehicle control. Then, the cells were treated with LPS at 5 ug/ml. The supernatants from treated cells were harvested at 24 h and placed in a 96 well for Luminex cytokine & chemokine profiling using a Luminex 200 multiplex assay (Luminex; R&D system, USA).
The main study arm with triplicate wells per group in a 24-well plate: • 1. Blank • 2. PBMC: 0.5% DMSO • 3. PBMC+LPS (5 ug/ml) • 4. PBMC+YY-101 100 uM • 5. PBMC+YY-101 10 uM • 6. PBMC+YY-101 1 uM • 7. PBMC+YY-101 0.1 uM • 8. PBMC+YY-101 0.01 uM • 9. PBMC+LPS (5 ug/ml)+Xiidra®100 uM • 10. PBMC+LPS (5 ug/ml)+Xiidra® 10 uM • 11. PBMC+LPS (5 ug/ml)+Xiidra® 1 uM • 12. PBMC+LPS (5 ug/ml)+Xiidra®0.1 uM • 13. PBMC+LPS (5 ug/ml)+Xiidra®0.01 uM • 14. PBMC+LPS (5 ug/ml)+Xiidra®0.001 uM • 15. PBMC+LPS (5 ug/ml)+YY-101 100 uM • 16. PBMC+LPS (5 ug/ml)+YY-101 10 uM • 17. PBMC+LPS (5 ug/ml)+YY-101 1 uM • 18. PBMC+LPS (5 ug/ml)+YY-101 0.1 uM • 19. PBMC+LPS (5 ug/ml)+YY-101 0.01 uM • 20. PBMC+LPS (5 ug/ml)+YY-101 0.001 uM • 21. PBMC+LPS (5 ug/ml)+YDE-011 100 uM • 22. PBMC+LPS (5 ug/ml)+YDE-011 10 uM • 23. PBMC+LPS (5 ug/ml)+YDE-011 1 uM • 24. PBMC+LPS (5 ug/ml)+YDE-011 0.1 uM • 25. PBMC+LPS (5 ug/ml)+YDE-011 0.01 uM • 26. PBMC+LPS (5 ug/ml)+YDE-011 0.001 uM • 27. PBMC+LPS (5 ug/ml)+YDE-043 100 uM • 28. PBMC+LPS (5 ug/ml)+YDE-043 10 uM • 29. PBMC+LPS (5 ug/ml)+YDE-043 1 uM • 30. PBMC+LPS (5 ug/ml)+YDE-043 0.1 uM • 31. PBMC+LPS (5 ug/ml)+YDE-043 0.01 uM • 32. PBMC+LPS (5 ug/ml)+YDE-043 0.001 uM
Multiplex assay was used to measure 30 cytokines and chemokines. The 1:2, 1:10 and 1:200 diluted cell supernatant and serial dilution of the standard were dispensed into a 96 well plate at 50 ul/well. Then, the pre-mixed cocktail of antibody-coated magnetic beads was dispensed at 50 ul/well and incubated at room temperature for 2 h in a horizontal orbital microplate shaker at 800±500 rpm. The beads were washed using a magnetic device to prevent loss. The biotin-antibody was dispensed in 50 ul of each well and incubated at room temperature for 1 h in a shaker at 800±500 rpm. After washing, streptavidin-PE was added at 50 ul/well and incubated at room temperature for 30 min in a shaker under the same conditions. Finally, after washing, wash buffer (100 ul/well) was added to the plate and incubated in a shaker for 2 min. The Luminex™ 200 setting were set according to the manufacturer's protocol. The data was calculated with a standard five-parameter logistic nonlinear regression analysis of the data (xPonent software 4.2, USA). The levels of cytokine/chemokine are normalized to the live cell counts (1×10^5 cells/mL) and presented as concentrations per mL (pg/mL or ng/mL).

[1] = PBMC + LPS(5 ug/ml), test article 0.001 uM, Mean
[2] = PBMC + LPS(5 ug/ml), test article 0.001 uM, single replicates
[3] = PBMC + LPS(5 ug/ml), test article 0.01 uM, Mean
[4] = PBMC + LPS(5 ug/ml), test article 0.01 uM, single replicates
[5] = PBMC + LPS(5 ug/ml), test article 0.1 uM, Mean
[6] = PBMC + LPS(5 ug/ml), test article 0.1 uM, single replicates
[7] = PBMC + LPS(5 ug/ml), test article 1 uM, Mean
[8] = PBMC + LPS(5 ug/ml), test article 1 uM, single replicates
[9] = PBMC + LPS(5 ug/ml), test article 10 uM, Mean
[10] = PBMC + LPS(5 ug/ml), test article 10 uM, single replicates
[11] = PBMC + LPS(5 ug/ml), test article 100 uM, Mean
[12] = PBMC + LPS(5 ug/ml), test article 100 uM, single replicates
[13] = PBMC without LPS, test article 0.01 uM, Mean
[14] = PBMC without LPS, test article 0.01 uM, single replicates
[15] = PBMC without LPS, test article 0.1 uM, Mean
[16] = PBMC without LPS, test article 0.1 uM, single replicates
[17] = PBMC without LPS, test article 1 uM, Mean
[18] = PBMC without LPS, test article 1 uM, single replicates

Compound: CC(C)C[C@H](NC(=O)CNC(=O)[C@H](CC(=O)O)NC(=O)[C@H](CCC(N)=O)NC(=O)CNC(=O)[C@@H]1C[C@@H](O)CN1)C(=O)N[C@@H](C)C(=O)NCC(=O)N1CCC[C@H]1C(=O)N[C@@H](CCCCN)C(=O)O [YY-101] (H-[Hyp]GQDGLAGPK-OH; N-terminus and C-terminus assumed)
- TIMP-1 Concentration [1]: 2635.9 pg/mL
- TIMP-1 MFI [1]: 1569.7
- TIMP-1 conc/live cell [1]: 411.8 pg/10^5
- TIMP-1 Concentration [2]: 2670.8 pg/mL and 2497.3 pg/mL and 2739.7 pg/mL
- TIMP-1 MFI [2]: 1596.0 and 1464.5 and 1648.5
- TIMP-1 conc/live cell [2]: 468.6 pg/10^5 and 351.7 pg/10^5 and 415.1 pg/10^5
- TIMP-1 Concentration [3]: 2651.1 pg/mL
- TIMP-1 MFI [3]: 1581.2
- TIMP-1 conc/live cell [3]: 430.2 pg/10^5
- TIMP-1 Concentration [4]: 2636.0 pg/mL and 2552.3 pg/mL and 2765.2 pg/mL
- TIMP-1 MFI [4]: 1569.5 and 1506.0 and 1668.0
- TIMP-1 conc/live cell [4]: 411.9 pg/10^5 and 425.4 pg/10^5 and 453.3 pg/10^5
- TIMP-1 Concentration [5]: 2599.6 pg/mL
- TIMP-1 MFI [5]: 1542.0
- TIMP-1 conc/live cell [5]: 445.1 pg/10^5
- TIMP-1 Concentration [6]: 2721.3 pg/mL and 2498.6 pg/mL and 2578.7 pg/mL
- TIMP-1 MFI [6]: 1634.5 and 1465.5 and 1526.0
- TIMP-1 conc/live cell [6]: 438.9 pg/10^5 and 480.5 pg/10^5 and 415.9 pg/10^5
- TIMP-1 Concentration [7]: 2672.9 pg/mL
- TIMP-1 MFI [7]: 1597.7
- TIMP-1 conc/live cell [7]: 410.8 pg/10^5
- TIMP-1 Concentration [8]: 2614.9 pg/mL and 2656.4 pg/mL and 2747.5 pg/mL
- TIMP-1 MFI [8]: 1553.5 and 1585.0 and 1654.5
- TIMP-1 conc/live cell [8]: 415.1 pg/10^5 and 374.1 pg/10^5 and 443.2 pg/10^5
- TIMP-1 Concentration [9]: 2693.7 pg/mL
- TIMP-1 MFI [9]: 1613.7
- TIMP-1 conc/live cell [9]: 409.5 pg/10^5
- TIMP-1 Concentration [10]: 2741.7 pg/mL and 2801.1 pg/mL and 2538.4 pg/mL
- TIMP-1 MFI [10]: 1650.0 and 1695.5 and 1495.5
- TIMP-1 conc/live cell [10]: 456.9 pg/10^5 and 437.7 pg/10^5 and 334.0 pg/10^5
- TIMP-1 Concentration [11]: 3324.7 pg/mL
- TIMP-1 MFI [11]: 2100.3
- TIMP-1 conc/live cell [11]: 574.3 pg/10^5
- TIMP-1 Concentration [12]: 3425.7 pg/mL and 3369.3 pg/mL and 3179.1 pg/mL
- TIMP-1 MFI [12]: 2179.0 and 2135.0 and 1987.0
- TIMP-1 conc/live cell [12]: 543.8 pg/10^5 and 543.4 pg/10^5 and 635.8 pg/10^5
- TIMP-1 Concentration [13]: 5306.9 pg/mL
- TIMP-1 MFI [13]: 3666.0
- TIMP-1 conc/live cell [13]: 1065.2 pg/10^5
- TIMP-1 Concentration [14]: 5042.4 pg/mL and 5571.4 pg/mL
- TIMP-1 MFI [14]: 3456.0 and 3876.0
- TIMP-1 conc/live cell [14]: 969.7 pg/10^5 and 1160.7 pg/10^5
- TIMP-1 Concentration [15]: 4907.8 pg/mL
- TIMP-1 MFI [15]: 3349.3
- TIMP-1 conc/live cell [15]: 971.6 pg/10^5
- TIMP-1 Concentration [16]: 4573.6 pg/mL and 5242.0 pg/mL
- TIMP-1 MFI [16]: 3084.0 and 3614.5
- TIMP-1 conc/live cell [16]: 1039.5 pg/10^5 and 903.8 pg/10^5
- TIMP-1 Concentration [17]: 5121.4 pg/mL
- TIMP-1 MFI [17]: 3518.8
- TIMP-1 conc/live cell [17]: 931.2 pg/10^5
- TIMP-1 Concentration [18]: 5155.8 pg/mL and 5087.1 pg/mL
- TIMP-1 MFI [18]: 3546.0 and 3491.5
- TIMP-1 conc/live cell [18]: 937.4 pg/10^5 and 924.9 pg/10^5
- TIMP-1 Concentration (PBMC without LPS, test article 10 uM, Mean): 6576.7 pg/mL
